A short description of one data set: method code SF-AS, from DOI: 10.1246/bcsj.63.3542.
Conditions: not given
As to `CN(C)C(=O)c1ccccn1`, the logP is -0.45. The same measure, in the same setting: next, `CN(C)C(=O)c1cnccn1`: -0.8; `CNc1cnccn1`: 0.56.

A further data set in a line: method code SF, from DOI: 10.1002/jps.2600830714, PMID: 7965679.
Conditions: not given
In turn, `CC(=O)OCC1OC(OC(C)=O)C(NC(=O)C(C)NC(=O)N(CCCl)N=O)C(OC(C)=O)C1OC(C)=O` (centres undefined) displayed a logP of 0.71. Turning to `O=NN(CCCl)C(=O)N[C@@H](Cc1ccccc1)C(=O)O`, the logP was -0.28. Still for that read-out and setting: in the case of `O=NN(CCCl)C(=O)NCC(=O)O` it was -1.25.

Experiment in the next data set: not given
Conditions: not given
With `CCCn1ccc(=O)c(O)c1`, the logP is -0.17. In the case of `Cn1ccc(=O)c(O)c1`, the logP was -0.7. The same measure, in the same setting: in the case of `CC(C)n1ccc(=O)c(O)c1` it was -0.02.

A short description of another data set: method code SF-AS, from DOI: 10.1002/ps.2780110406.
Conditions: not given
With `CCOP(=S)(OCC)Oc1cccc(F)n1`, the logP came out at 3.51.

For the molecule `CCOP(=O)(NC(C)C)Oc1ccc(SC)c(C)c1` (centres undefined), the logP worked out at 3.18. For `Clc1cc(Cl)c(Cl)c(Cl)c1`, the logP came out at 4.68.

Experiment in the next data set: not given
Conditions: not given
This is another data set of the same source.
`O=C(O)c1snc(Cl)c1Cl` yielded a logP of 1.44. `Cc1cc(=O)n(-c2ccc(Cl)cc2)cc1C(=O)O`: the logP worked out at 4.1.

In the case of `O=C(O)c1cc(C(F)(F)F)nc2ccccc12`, the logP worked out at 3.14.

A further data set is described as follows: method code SF-AS, from DOI: 10.1248/cpb.40.925.
Conditions: not given
Consider `COC(=O)c1cc2ccccc2o1`, for which the logP was determined as 2.53. `COC(=O)c1ccc(Br)o1` displayed a logP of 1.84. Still for that read-out and setting: in the case of `COC(=O)c1c[nH]c2ccccc12` it was 2.57.

Experiment in the next data set: not given
Conditions: not given
This is another data set of the same source.
In turn, `Oc1cc(Cl)c(Cl)c(Cl)c1O` showed a logP of 3.56. On the same count and under the same terms, in the case of `Cc1ccc(Cl)cc1Cl` it was 4.09; in that of `Oc1c(O)c(Cl)c(Cl)c(Cl)c1Cl`, 4.12.

Experiment in a further data set: not given
Conditions: not given
This is another data set of the same source.
For `ClC(Cl)=C(Cl)C(Cl)=C(Cl)Cl`, the logP was 4.74. Take `Nc1ccc(Cl)cc1Cl`: the logP is 2.64. Consider `ClCc1cccc(CCl)c1`, for which the logP worked out at 2.72.

Experiment in another data set: not given
Conditions: not given
The source holds these as a separate data set.
Consider `On1nc2ccccc2n1`, for which the logP turned out to be 0.69.

`CC(=O)OCC(=O)[C@H]1CC[C@H]2[C@@H]3CCC4=CC(=O)CC[C@]4(C)[C@H]3CC[C@]12C` yielded a logP of 3.08. `COc1cc2c(c(OC)c1OC)-c1ccc(O)c(=O)cc1[C@@H](NC(C)=O)CC2`: the logP turned out to be 1.03.

Experiment in the next data set: not given
Conditions: not given
The source holds these as a separate data set.
Take `O=S1CCCC1`: the logP is -0.96. In the case of `CCCCC1C(=O)N(c2ccccc2)N(c2ccc(O)cc2)C1=O` (centres undefined), the log partition coefficient (logP) was determined as 3.04. `CSc1ccc(C=C2C(C)=C(CC(=O)O)c3cc(F)ccc32)cc1` gave a logP of 4.76.

Experiment in the next data set: not given
Conditions: not given
The source holds these as a separate data set.
As to `OC1CCCCC1`, the logP is 1.36.

`Cc1c2ccccc2c(C)c2c1ccc1ccccc12` came in with a logP of 6.16.

The molecule `CCCC(C)=O` had a logP of 0.95.

Experiment in a further data set: not given
Conditions: not given
This is another data set of the same source.
Regarding `Brc1ccsc1Br`, the lipophilicity (logP) came to 3.53.

In turn, `NC(=S)Nc1cccc2ccccc12` yielded a logP of 1.66. Take `O=c1cc(-c2ccccc2)oc2ccc3ccccc3c12`: the logP turned out to be 4.94.

Experiment in another data set: not given
Conditions: not given
The source holds these as a separate data set.
Take `Clc1ccc(-c2ccccc2)cc1Cl`: the logP turned out to be 5.11. The same measure, in the same setting: next, `Cc1ccc(O)c(C)c1`: 2.48; `CC(C)(C)O`: 0.34.

The nature of a further data set: method code SF, from DOI: 10.1039/p29920000723.
Conditions: not given
Molecule `CCS(=O)(=O)NC(=O)CCc1ccccc1` had a logP of 1.67. Molecule `N#CCCCCOC(=O)c1ccccc1` yielded a logP of 2.05. In turn, `CNC(=S)NCC(F)(F)C(F)(F)C(F)(F)F` showed a logP of 2.39.

Experiment in a further data set: not given
Conditions: not given
The source holds these as a separate data set.
The molecule `NC(=O)c1ccccc1Cl` registered a logP of 0.94. The molecule `c1ccc2cc3c(ccc4ccccc43)cc2c1` showed a logP of 5.93. `COc1ccccn1` gave a logP of 1.23.

Another data set can be described thus: method code SF, from DOI: 10.1016/0360-3016(89)90912-7, PMID: 2703384. Particulars: pH 7.4.
Take `COCC(F)Cn1cnc([N+](=O)[O-])c1` (centres undefined): the logD was -0.04. The molecule `O=[N+]([O-])c1nccn1CC(F)CO` (centres undefined) returned a logD of -0.38.

Consider `O=[N+]([O-])c1cn(CC(F)CO)cn1` (centres undefined), for which the logD was -0.8.

Experiment in the next data set: not given
Conditions: not given
This is another data set of the same source.
`Oc1ccccc1O` yielded a logP of 1.1. As to `Cc1ccc(O)cc1`, the logP was determined as 2.03. The molecule `Oc1ccc(Cl)cc1Cl` showed a logP of 3.12.

Experiment in the next data set: not given
Conditions: not given
This is another data set of the same source.
`OCc1ccccc1F` gave a logP of 1.3. In turn, `OCc1ccc(Br)cc1` registered a logP of 2.15.

As to `Nc1c(F)cc(F)cc1F`, the logP is 1.81.

Broadly, the logP is a log measure of how a compound divides between an organic and an aqueous phase. A higher logP goes with a more lipophilic compound. Broadly, the logD is lipophilicity at a set pH, counting ionised and neutral species.
